Publication PMC6152717, “Novel Tacrine-Scutellarin Hybrids as Multipotent Anti-Alzheimer’s Agents: Design, Synthesis and Biological Evaluation” (Molecules : A Journal of Synthetic Chemistry and Natural …, 2017)
Marks after values point to notes of the source that are not given here.

Tests used:
[1] = test system: AChE isolated from rat cortex homogenate; settings: cited from earlier work
BChE from rat serum = settings: read-out: BChE IC50 ± SEM; cited from earlier work
[2] = printed in DPPH EC50 column; cited from earlier work
HepG2 cells = test: Hepatotoxicity on HepG2 cells, MTT assay; assay type: cell-based; settings: for IC50: Homo sapiens, HepG2, MTT, 24 h incubation, mean ± SEM of three independent experiments; for cytotoxicity compared to reference 6-Cl-THA: HepG2, 24 h incubation
Method: Hepatotoxicity of tested compounds was evaluated using the HepG2 cell line originally from human liver hepatocellular carcinoma (ATCC, Manassas, VA, USA). These cells were plated at density 17 × 10^3 per well in a 96-well plate in Dulbecco’s Modified Eagle’s Medium (DMEM; Gibco, Langley, OK, USA) with 10% FBS (Gibco) and were left to attach overnight. […] Stock solutons of tested compounds were prepared in DMSO (Sigma Aldrich, Prague, Czech Republic) and then diluted in DMEM medium. […] Subsequently, the medium was aspirated and 100 μL MTT solution (0.5 mg/mL) in serum-free DMEM medium was added to each well. Cells were then incubated for 1 h. The medium was then discarded and purple crystals of MTT formazan were dissolved in 100 μL DMSO under shaking. The absorbance was measured with a microplate reader (BioTek) at a minimum wavelength of 570 nm. The IC50 values were calculated using four parametric nonlinear regression with statistic software GraphPad Prism. Data were obtained from three independent experiments performed in triplicates.

[3] = PAMPA-BBB permeation assay; assay type: in vitro ADME; settings: for Prediction of BBB penetration: PAMPA-BBB class; for Papp at 100 μM / BBB crossing prediction: PAMPA-BBB; for Papp at 100 μM: PBS pH 7.4, 100 μM donor, mean ± SD of three independent experiments, read-out: Pe; for BBB crossing prediction: passive diffusion model
Method: The parallel artificial membrane permeation assay (PAMPA) has been used based on reported protocol. The filter membrane of the donor plate was coated with PBL (Polar Brain Lipid, Avanti, Alabaster, AL, USA) in dodecane (4 μL of 20 mg/mL PBL in dodecane) and the acceptor well was filled with 300 μL of PBS pH 7.4 buffer (VD). Tested compounds were dissolved first in DMSO and then diluted with PBS pH 7.4 to reach the final concentration 100 μM in the donor well. […] 300 μL of the donor solution was added to the donor wells (VA) and the donor filter plate was carefully put on the acceptor plate so that coated membrane was “in touch” with both donor solution and acceptor buffer. Test compound diffused from the donor well through the lipid membrane (Area = 0.28 cm^2) to the acceptor well. The concentration of the drug in both donor and the acceptor wells was assessed after 3, 4, 5 and 6 h of incubation in quadruplicate using the Synergy HT UV plate reader at the maximum absorption wavelength of each compound. Concentration of the compounds was calculated from the standard curve and expressed as the permeability (Pe) according to Equation (2): (2) logPe=log {C×−ln(1−[drug]acceptor/[drug]equilibrium)} where C = (VD×VA/(VD+VA)×Area×time)

DPPH antioxidant assay = settings: mean of at least three experiments; 30 min, methanol
Text: The free phenolic group of 1 is presumably able to easily undergo keto-enol tautomerism which has previously been postulated to be responsible for radical scavenging. Within the family of 6-Cl-THA-scutellarin hybrids, all the phenolic hydroxyls of scutellarin moiety are hindered by methyl containing methoxy groups and thus unable to exert such an effect under in vitro conditions. However, the antioxidant activity of K1383–K1389 in vivo may occur due to metabolism of the compound whereby demethylation of one or more methoxy groups can take place. This is known to be the case of 7-methoxytacrine and its major metabolite found in vivo, 7-hydroxytacrine.
DPPH, methanol, and Trolox (as reference standard) were purchased from Sigma-Aldrich. Polystyrene Nunc 96-well microplates with flat bottom shape (Thermo Fisher Scientific) were used for measuring purposes. All of the assays were carried out in methanol. DPPH solution was prepared at 0.2 mM concentration. […] The reaction time constituted 30 min. The antioxidant activity was determined by measuring the […] in absorbance at 517 nm at laboratory temperature using Synergy 2 multimode microplate reader. Each concentration was tested in triplicate. The software GraphPad Prism version 5 for Windows was used for statistical data evaluation.

hAChE = molecular target: T1, hAChE (Homo sapiens, UniProt P22303); test: Kinetic study of AChE inhibition (Lineweaver-Burk, nonlinear regression); assay type: biochemical
T1 construct: Human erythrocyte hemolyzate, prepared from blood samples, was applied as a source of AChE (EC 3.1.1.7); from tissue; host or cells: human erythrocytes (hemolyzate from blood of healthy volunteers)
Method: To determine the interaction of K1383 with hAChE, a kinetic study was carried out. Enzyme rate curves were obtained at several substrate concentrations of the inhibitor.
Inhibitors bind reversibly to both free AChE and AChE-substrate complex with equal affinity (Ki = Ki′) thus affecting the binding of substrate in the active site of enzyme and interacting with its allosteric peripheral anionic site (PAS). Interaction in this site causes conformational changes of the enzyme, including its active site. Km remained unchanged, while Vmax was reduced at higher concentration of K1383.
The kinetic study of AChE inhibition was performed using Ellman’s method. […] The type of inhibition and corresponding inhibition constant (Ki and Ki′) were determined by the nonlinear regression analysis of the substrate velocity curves at different concentrations of tested compounds. Results for each type model of inhibition (competitive, uncompetitive, mixed and mixed-non-competitive) were compared with sum-of-squares F-test. Lineweaver-Burk (double-reciprocal) plot, used for visualization of the enzyme-inhibitor interactions, was calculated using weighted least-squares regression. All calculations were performed using the GraphPad Prism software.
Figure 2 Steady-state inhibition of AChE hydrolysis of substrate acetylthiocholine (ATCh) by compound K1383 at different concentrations. […]

[4] = molecular target: T2, human acetylcholinesterase (hAChE) (Homo sapiens, UniProt P22303); test: biochemical; settings: AChE from human erythrocytes; mean of three independent measurements ± SEM
T2 construct: Human erythrocyte hemolyzate, prepared from blood samples, was applied as a source of AChE (EC 3.1.1.7); from tissue; host or cells: human erythrocytes (hemolyzate from blood of healthy volunteers)
Method: (§1) Human erythrocyte hemolyzate, prepared from blood samples, was applied as a source of AChE (EC 3.1.1.7). […] The erythrocytes were washed three times with phosphate buffer (PB; 0.1 M, pH 7.4) and then hemolyzed in PB (0.01 M, Ph 7.4) in ration 1:10 (w/w), frozen and kept under −80 °C before use. Human plasma BChE (EC 3.1.1.8), 5,5′-dithiobis(2-nitrobenzoic acid) (Ellman’s reagent, DTNB), phosphate buffer solution (PBS, pH 7.4), acetylthiocholine iodide (ATCh), and butyrylthiocholine (BTCh) were purchased from Sigma-Aldrich. Polystyrene Nunc 96-well microplates with flat bottom shape (ThermoFisher Scientific, Bremen, Germany) were used for the measuring purposes. All of the assays were carried out in 0.1 M KH2PO4/K2HPO4 buffer, pH 7.4. […] The assay medium (100 μL) consisted of 40 μL of 0.1 M PBS (pH = 7.4), 20 μL of 0.01 M DTNB, 10 μL of cholinesterase, 10 µL of tested compound and 20 μL of 0.01 M substrate (ATCh or BTCh iodide solution). Assayed solutions of target compounds (10 μL, 10^−^3–10^−^9 M) were preincubated with enzyme for 5 min. The reaction was initiated by addition of 20 μL of substrate. […] Each concentration was assayed in triplicate. Percentage of inhibition (I) was calculated from the measured data as follows Equation (1): (1) I=(1−ΔAi/ΔA0)×100 [%]
(§2) ΔAi indicates absorbance change provided by cholinesterase exposed to tested compound. ΔA0 indicates absorbance change caused by intact cholinesterase, where phosphate bufffer was applied in the same was as the anticholinesterase compound. […] The IC50 values are expressed as a mean ± SEM.

[5] = molecular target: T3, human butyrylcholinesterase (hBChE) (Homo sapiens, UniProt P06276); test: biochemical; settings: BChE from human plasma; mean of three independent measurements ± SEM
T3 construct: Human plasma BChE (EC 3.1.1.8); purchased Sigma-Aldrich; host or cells: human plasma
Text: It is well established that the activity of AChE decreases during the course of AD, while that of BChE increases. Several reports indicate the ability of BChE to compensate the lack of AChE thus continuing in regulation of cholinergic transmission. Therefore, the agents with affinity to both cholinesterases could play a more profound role in the AD therapy.
as §1, §2

T2 sequence (P22303 32-617 isoform P22303-2 limits assumed): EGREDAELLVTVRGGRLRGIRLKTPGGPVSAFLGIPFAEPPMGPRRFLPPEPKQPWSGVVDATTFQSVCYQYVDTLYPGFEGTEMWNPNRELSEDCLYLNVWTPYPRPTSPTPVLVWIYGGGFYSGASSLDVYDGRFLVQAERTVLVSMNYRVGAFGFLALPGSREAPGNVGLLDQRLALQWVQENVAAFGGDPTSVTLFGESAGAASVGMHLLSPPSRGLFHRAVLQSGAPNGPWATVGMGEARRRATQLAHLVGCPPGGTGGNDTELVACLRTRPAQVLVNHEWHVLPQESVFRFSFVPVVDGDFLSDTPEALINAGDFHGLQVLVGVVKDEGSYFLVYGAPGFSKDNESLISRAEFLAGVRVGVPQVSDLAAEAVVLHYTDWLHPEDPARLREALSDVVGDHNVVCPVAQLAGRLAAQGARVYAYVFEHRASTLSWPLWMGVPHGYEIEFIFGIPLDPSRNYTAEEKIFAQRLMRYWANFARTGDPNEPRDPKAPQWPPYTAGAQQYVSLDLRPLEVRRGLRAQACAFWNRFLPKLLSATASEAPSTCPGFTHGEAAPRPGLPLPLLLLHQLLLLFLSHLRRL
T3 sequence (P06276 29-602): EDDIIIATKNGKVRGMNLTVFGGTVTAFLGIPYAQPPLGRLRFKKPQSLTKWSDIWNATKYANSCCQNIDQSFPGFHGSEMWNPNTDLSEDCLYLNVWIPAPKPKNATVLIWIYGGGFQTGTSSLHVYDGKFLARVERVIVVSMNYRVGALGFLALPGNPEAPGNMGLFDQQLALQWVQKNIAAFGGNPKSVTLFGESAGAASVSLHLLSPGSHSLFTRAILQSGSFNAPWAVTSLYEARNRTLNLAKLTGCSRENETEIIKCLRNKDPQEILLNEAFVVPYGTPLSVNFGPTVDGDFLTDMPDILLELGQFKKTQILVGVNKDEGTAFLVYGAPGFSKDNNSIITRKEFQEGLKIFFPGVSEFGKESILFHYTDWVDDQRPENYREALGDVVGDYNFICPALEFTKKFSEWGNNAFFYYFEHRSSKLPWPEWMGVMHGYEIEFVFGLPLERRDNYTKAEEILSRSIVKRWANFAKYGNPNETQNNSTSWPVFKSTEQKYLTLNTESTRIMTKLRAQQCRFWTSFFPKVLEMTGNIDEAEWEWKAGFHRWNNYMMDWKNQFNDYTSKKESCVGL
T1 sequence (P22303 32-617 isoform P22303-2 limits assumed): as the sequence (P22303 32-617 isoform P22303-2 limits assumed) above

## CCN(CC)c1cccc(-c2cc(=O)c3c(O)c(OC)c(OC)cc3o2)c1 [Compound 1]
[1]; AChE isolated from rat cortex homogenate, read-out: AChE IC50 ± SEM
  IC50: 0.57 ± 0.02 µM
[1]; rat AChE vs rat BChE
  SI (BChE IC50/AChE IC50): 39.7
BChE from rat serum
  IC50: 22.6 ± 0.22 µM
[2]
  ORAC-FL antioxidant power: 1.3 ± 0.02 ^a µM of Trolox/µM of tested compound

## Nc1c2c(nc3cc(Cl)ccc13)CCCC2 [Compound 6-Cl-THA, 6-Chlorotacrine, reference compound]
HepG2 cells
  IC50: 7.13 ± 0.11 µM
[3]
  Prediction of BBB penetration: CNS+ (high BBB permeation predicted, Pe × 10^−6 cm/s > 4.0)
  Papp at 100 μM: 5 ± 0.45 ×10⁻⁶ cm/s
DPPH antioxidant assay
  EC50: > 100 µM

## COc1cc2oc(-c3ccc(NCCNc4c5c(nc6cc(Cl)ccc46)CCCC5)cc3)cc(=O)c2c(OC)c1OC [Compound K1383]
HepG2 cells
  IC50: 3.4 ± 1.05 µM
hAChE; nonlinear regression analysis, p < 0.05
  type of inhibition: mixed, non-competitive
hAChE; substrate ATCh 0.156–1.250 mM, Ki = Ki′
  Ki: 0.00275 ± 0.00032 µM
[4]
  IC50: 0.00163 ± 0.00013 µM
[3]
  Prediction of BBB penetration: CNS± (BBB permeation uncertain, Pe × 10^−6 cm/s from 4.0 to 2.0)
  Papp at 100 μM: 2.88 ± 0.1 ×10⁻⁶ cm/s
DPPH antioxidant assay
  EC50: > 500 µM
[5]
  IC50: 1.21 ± 0.07 µM

## COc1cc2oc(-c3ccc(NCCCNc4c5c(nc6cc(Cl)ccc46)CCCC5)cc3)cc(=O)c2c(OC)c1OC [Compound K1384]
HepG2 cells
  IC50: 5.77 ± 1.68 µM
[4]
  IC50: 0.0019 ± 0.0001 µM
[3]
  Prediction of BBB penetration: CNS+ (high BBB permeation predicted, Pe × 10^−6 cm/s > 4.0)
  Papp at 100 μM: 5.01 ± 2.2 ×10⁻⁶ cm/s
  BBB crossing prediction: potential to cross the BBB
DPPH antioxidant assay
  EC50: > 500 µM
[5]
  IC50: 0.174 ± 0.007 µM

## COc1cc2oc(-c3ccc(NCCCCNc4c5c(nc6cc(Cl)ccc46)CCCC5)cc3)cc(=O)c2c(OC)c1OC [Compound K1385]
HepG2 cells
  IC50: 3.29 ± 0.82 µM
[4]
  IC50: 0.00515 ± 0.00018 µM
[3]
  Prediction of BBB penetration: CNS± (BBB permeation uncertain, Pe × 10^−6 cm/s from 4.0 to 2.0)
  Papp at 100 μM: 2.6 ± 0.55 ×10⁻⁶ cm/s
DPPH antioxidant assay
  EC50: > 500 µM
[5]
  IC50: 8.69 ± 0.04 µM

## COc1cc2oc(-c3ccc(NCCCCCNc4c5c(nc6cc(Cl)ccc46)CCCC5)cc3)cc(=O)c2c(OC)c1OC [Compound K1386]
HepG2 cells
  IC50: 3.89 ± 1.08 µM
[4]
  IC50: 0.0267 ± 0.001 µM
[3]
  Prediction of BBB penetration: CNS± (BBB permeation uncertain, Pe × 10^−6 cm/s from 4.0 to 2.0)
  Papp at 100 μM: 3.93 ± 1 ×10⁻⁶ cm/s
DPPH antioxidant assay
  EC50: > 500 µM
[5]
  IC50: 0.934 ± 0.045 µM

## COc1cc2oc(-c3ccc(NCCCCCCNc4c5c(nc6cc(Cl)ccc46)CCCC5)cc3)cc(=O)c2c(OC)c1OC [Compound K1387]
HepG2 cells
  IC50: 7.76 ± 1.47 µM
[4]
  IC50: 0.031 ± 0.0015 µM
[3]
  Prediction of BBB penetration: CNS± (BBB permeation uncertain, Pe × 10^−6 cm/s from 4.0 to 2.0)
  Papp at 100 μM: 3.31 ± 0.38 ×10⁻⁶ cm/s
DPPH antioxidant assay
  EC50: > 500 µM
[5]
  IC50: 6.46 ± 0.3 µM

## COc1cc2oc(-c3ccc(NCCCCCCCNc4c5c(nc6cc(Cl)ccc46)CCCC5)cc3)cc(=O)c2c(OC)c1OC [Compound K1388]
HepG2 cells
  cytotoxicity compared to reference 6-Cl-THA: slightly suppressed cytotoxicity
  IC50: > 32 µM
[4]
  IC50: 0.0241 ± 0.0009 µM
[3]
  Prediction of BBB penetration: CNS+ (high BBB permeation predicted, Pe × 10^−6 cm/s > 4.0)
  Papp at 100 μM: 4.92 ± 0.02 ×10⁻⁶ cm/s
  BBB crossing prediction: potential to cross the BBB
DPPH antioxidant assay
  EC50: > 500 µM
[5]
  IC50: 2.81 ± 0.11 µM

## COc1cc2oc(-c3ccc(NCCCCCCCCNc4c5c(nc6cc(Cl)ccc46)CCCC5)cc3)cc(=O)c2c(OC)c1OC [Compound K1389]
HepG2 cells
  cytotoxicity compared to reference 6-Cl-THA: slightly suppressed cytotoxicity
  IC50: > 16 µM
[4]
  IC50: 0.0223 ± 0.0007 µM
[3]
  Prediction of BBB penetration: CNS+ (high BBB permeation predicted, Pe × 10^−6 cm/s > 4.0)
  Papp at 100 μM: 8.1 ± 3.1 ×10⁻⁶ cm/s
  BBB crossing prediction: potential to cross the BBB
DPPH antioxidant assay
  EC50: > 500 µM
[5]
  IC50: 2.21 ± 0.13 µM

## Cc1c(C)c2c(c(C)c1O)CCC(C)(C(=O)O)O2 (stereo not shown) [trolox, Trolox, reference compound]
DPPH antioxidant assay
  EC50: 16.2 ± 0.42 µM
